Data as given in ChEMBL document CHEMBL3826886, “LpxC Inhibitors: Design, Synthesis, and Biological Evaluation of Oxazolidinones as Gram-negative Antibacterial Agents” (ACS Med Chem Lett, 2016).
In brackets after ≈: the same amount, converted by molar mass. Activity calls are given as the source filed them. The rule behind the calls is not given here.

Tests used:
Pseudomonas aeruginosa [1] = experiment: Antibacterial activity against Pseudomonas aeruginosa K799/61 measured after 16 to 20 hrs by agar dilution method; assay type: functional, organism-based
[2] = molecular target: T1, UDP-3-O-acyl-N-acetylglucosamine deacetylase (Escherichia coli K-12, UniProt P0A725); experiment: Inhibition of Escherichia coli LpxC using UDP-3-O-(R-3-hydroxymyristoyl)GlcNAc as substrate measured after 60 mins by fluorescence analysis
T1 sequence (P0A725 whole entry): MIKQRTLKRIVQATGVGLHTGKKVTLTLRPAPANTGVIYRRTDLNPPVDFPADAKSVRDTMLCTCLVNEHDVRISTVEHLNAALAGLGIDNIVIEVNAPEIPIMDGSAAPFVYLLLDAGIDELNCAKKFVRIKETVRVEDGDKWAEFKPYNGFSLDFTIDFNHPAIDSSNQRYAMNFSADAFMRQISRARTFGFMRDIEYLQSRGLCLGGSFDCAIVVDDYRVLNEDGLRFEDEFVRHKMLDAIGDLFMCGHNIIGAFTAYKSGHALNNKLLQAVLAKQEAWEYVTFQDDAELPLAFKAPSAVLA

Escherichia coli [3] = experiment: Antibacterial activity against wild-type Escherichia coli TG1 after 16 to 20 hrs by agar dilution method; assay type: functional
Escherichia coli [4] = experiment: Antibacterial activity against Escherichia coli KAM3 harboring acrB deletion mutant after 16 to 20 hrs by agar dilution method; assay type: functional
Klebsiella pneumoniae = experiment: Antibacterial activity against wild-type Klebsiella pneumoniae ATCC 13883 by agar dilution method; assay type: functional
Acinetobacter baumannii = experiment: Antibacterial activity against Acinetobacter baumannii ATCC 19606 measured after 20 to 24 hrs by agar dilution method; assay type: functional
[5] = Ratio of MIC for wild-type Escherichia coli TG1 to MIC for Escherichia coli KAM3 acrB deletion mutant; assay type: functional
Pseudomonas aeruginosa [6] = experiment: Antibacterial activity against wild type Pseudomonas aeruginosa K799 measured after 16 to 20 hrs by agar dilution method; assay type: functional, organism-based
Pseudomonas aeruginosa [7] = experiment: Antibacterial activity against Pseudomonas aeruginosa PAO4009 measured after 16 to 20 hrs by agar dilution method; assay type: functional, organism-based

Compound | Activity (Pseudomonas aeruginosa [1]) | IC50 [2] [nM] | MIC (Escherichia coli [3]) [µg/mL] | MIC (Escherichia coli [4]) [µg/mL] | MIC (Klebsiella pneumoniae) [µg/mL] | Activity (Acinetobacter baumannii) | Ratio [5] | Activity (Pseudomonas aeruginosa [6]) | Activity (Pseudomonas aeruginosa [7])
O=C(NO)[C@@H]1CN(c2ccc(C#CC#CC3CC3)cc2)C(=O)O1 | inactive | 18 | 0.063 (≈ 0.203 µM) | 0.016 (≈ 0.0516 µM) | 0.25 (≈ 0.806 µM) | inactive | 2 | inactive | inactive
O=C(NO)[C@@H]1CN(c2ccc(C#Cc3ccc(CN4CCOCC4)cc3)cc2)C(=O)CO1 |  | 510 | 2 (≈ 4.59 µM) | 0.25 (≈ 0.574 µM) | 16 (≈ 36.7 µM) |  |  |  | 
O=C(NO)[C@@H]1CN(c2ccc(C#CC#CC3CC3)cc2F)C(=O)O1 | inactive | 200 | 0.5 (≈ 1.52 µM) | 0.25 (≈ 0.762 µM) | 4 (≈ 12.2 µM) | inactive | 2 | inactive | inactive
O=C(NO)c1ccc(=O)n(-c2ccc(C#Cc3ccc(CN4CCOCC4)cc3)cc2)c1 |  | 1000 | 8 (≈ 18.6 µM) | 1 (≈ 2.33 µM) | 64 (≈ 149 µM) |  |  |  | 
COc1cc(C#CC#CC2CC2)ccc1N1C[C@@H](C(=O)NO)OC1=O |  | 2000 | 4 (≈ 11.8 µM) | 0.5 (≈ 1.47 µM) | 32 (≈ 94 µM) |  | 2 |  | 
O=C(NO)[C@@H]1CN(c2ccc(C#Cc3ccc(CN4CCOCC4)cc3)cc2)C(=O)N1 |  | 700 | 8 (≈ 19 µM) | 0.5 (≈ 1.19 µM) | > 32 |  |  |  | 
C[C@@H](O)[C@H](NC(=O)c1ccc(C#Cc2ccc(CN3CCOCC3)cc2)cc1)C(=O)NO |  |  | 0.13 (≈ 0.297 µM) | 0.01 (≈ 0.0229 µM) | 0.25 (≈ 0.571 µM) |  |  |  | 
O=C(NO)[C@@H]1CN(c2ccc(C#CC#CCCCO)cc2)C(=O)O1 |  | 58 | 0.125 (≈ 0.381 µM) | 0.031 (≈ 0.0944 µM) | 2 (≈ 6.09 µM) |  | 2 |  | 
Nc1cc(N2C[C@@H](C(=O)NO)OC2=O)ccc1C#CC#CC1CC1 |  | 270 | 0.25 (≈ 0.768 µM) | 0.063 (≈ 0.194 µM) | 2 (≈ 6.15 µM) |  | 2 |  | 
O=C(NO)[C@@H]1CN(c2ccc(C#CC#CC3CC3)c(F)c2)C(=O)O1 | inactive | 6 | 0.016 (≈ 0.0487 µM) | 0.004 (≈ 0.0122 µM) | 0.063 (≈ 0.192 µM) | inactive | 2 | inactive | inactive
O=C(NO)[C@@H]1CN(c2ccc(C#Cc3ccc(CN4CCOCC4)cc3)cc2)C(=O)O1 | inactive | 130 | 0.5 (≈ 1.19 µM) | 0.06 (≈ 0.142 µM) | 2 (≈ 4.75 µM) | inactive | 2 | inactive | inactive
O=C(NO)[C@@H]1CN(c2ccc(C#CC#CC3CC3)c([N+](=O)[O-])c2)C(=O)O1 |  | 27 | 0.125 (≈ 0.352 µM) | 0.31 (≈ 0.872 µM) | 1 (≈ 2.81 µM) |  | 2 |  | 
O=C(NO)[C@@H]1CN(c2ccc(C#CC#CCCO)cc2)C(=O)O1 |  | 140 | 0.5 (≈ 1.59 µM) | 0.125 (≈ 0.398 µM) | 8 (≈ 25.5 µM) |  | 2 |  | 
O=C(NO)[C@H]1CN(c2ccc(C#Cc3ccc(CN4CCOCC4)cc3)cc2)C(=O)O1 |  | 260 | 1 (≈ 2.37 µM) | 0.13 (≈ 0.308 µM) | 8 (≈ 19 µM) |  |  |  | 
O=C(NO)[C@@H]1CN(c2ccc(C#CC#C[C@H]3C[C@@H]3CO)cc2)C(=O)O1 (mixture of isomers) |  | 20 | 0.125 | 0.016 | 1 |  | 2 |  | 
